Data published in ChEMBL document CHEMBL5291721, “A preclinical secondary pharmacology resource illuminates target-adverse drug reaction associations of marketed drugs” (Nat Commun, 2023).

Experiments:
Adenosine receptor A2a = Adenosine receptor A2a (Homo sapiens, UniProt P29274)
Androgen receptor = target: T1, Androgen receptor (Rattus norvegicus, UniProt P15207); format: functional
T1 sequence (P15207 whole entry): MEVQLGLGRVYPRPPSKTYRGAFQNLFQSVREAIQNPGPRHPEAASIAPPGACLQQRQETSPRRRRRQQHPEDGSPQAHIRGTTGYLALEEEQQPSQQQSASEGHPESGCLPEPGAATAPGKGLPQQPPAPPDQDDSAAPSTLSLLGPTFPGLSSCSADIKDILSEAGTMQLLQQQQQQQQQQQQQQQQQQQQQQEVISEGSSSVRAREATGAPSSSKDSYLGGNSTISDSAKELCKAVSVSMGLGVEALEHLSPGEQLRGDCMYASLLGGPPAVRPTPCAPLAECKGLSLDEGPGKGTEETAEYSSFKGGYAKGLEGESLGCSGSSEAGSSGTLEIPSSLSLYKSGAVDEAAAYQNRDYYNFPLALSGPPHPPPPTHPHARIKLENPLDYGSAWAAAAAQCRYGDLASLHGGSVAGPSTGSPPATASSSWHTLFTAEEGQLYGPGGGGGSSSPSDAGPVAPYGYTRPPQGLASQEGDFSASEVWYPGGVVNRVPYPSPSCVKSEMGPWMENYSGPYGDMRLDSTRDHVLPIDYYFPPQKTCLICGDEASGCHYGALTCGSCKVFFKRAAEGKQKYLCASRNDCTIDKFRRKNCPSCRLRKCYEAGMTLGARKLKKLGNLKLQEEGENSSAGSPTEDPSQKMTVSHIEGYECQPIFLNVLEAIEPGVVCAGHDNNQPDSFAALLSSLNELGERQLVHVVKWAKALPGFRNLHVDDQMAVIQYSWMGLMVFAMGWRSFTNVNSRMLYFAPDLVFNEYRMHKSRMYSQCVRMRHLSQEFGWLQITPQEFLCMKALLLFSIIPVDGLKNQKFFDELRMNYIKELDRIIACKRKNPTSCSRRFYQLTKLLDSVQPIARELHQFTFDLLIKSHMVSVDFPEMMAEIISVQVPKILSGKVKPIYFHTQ

[1] = target: T2, Type-1 angiotensin II receptor (Homo sapiens, UniProt P30556)
T2 sequence (P30556 whole entry): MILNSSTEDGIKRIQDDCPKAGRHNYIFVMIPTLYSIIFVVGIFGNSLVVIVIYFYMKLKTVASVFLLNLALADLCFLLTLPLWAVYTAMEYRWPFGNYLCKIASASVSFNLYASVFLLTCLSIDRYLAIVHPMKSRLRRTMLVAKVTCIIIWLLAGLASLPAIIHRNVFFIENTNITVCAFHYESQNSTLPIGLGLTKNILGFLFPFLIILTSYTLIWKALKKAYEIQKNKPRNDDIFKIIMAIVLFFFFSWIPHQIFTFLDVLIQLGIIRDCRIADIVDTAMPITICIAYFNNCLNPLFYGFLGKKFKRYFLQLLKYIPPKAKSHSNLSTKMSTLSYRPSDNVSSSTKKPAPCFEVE

Measured: AC50
Further: assay procedure not described here.

Sequence of Adenosine receptor A2a (P29274 whole entry): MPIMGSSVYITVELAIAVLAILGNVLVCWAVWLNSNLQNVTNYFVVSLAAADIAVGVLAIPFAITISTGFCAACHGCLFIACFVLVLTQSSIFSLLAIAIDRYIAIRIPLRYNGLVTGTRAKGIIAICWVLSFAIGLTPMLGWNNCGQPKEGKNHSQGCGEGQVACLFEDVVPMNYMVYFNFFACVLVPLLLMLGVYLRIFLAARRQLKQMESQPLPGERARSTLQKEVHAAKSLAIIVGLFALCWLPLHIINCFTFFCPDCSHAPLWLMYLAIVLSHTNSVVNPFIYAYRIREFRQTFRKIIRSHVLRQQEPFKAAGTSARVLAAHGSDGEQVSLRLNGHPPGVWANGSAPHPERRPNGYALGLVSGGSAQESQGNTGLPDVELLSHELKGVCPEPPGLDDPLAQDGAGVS

HYDROXOCOBALAMIN
> 30 µM: all assays above
